The results in this text go back to patent publication US20110288011A1, “PEPTIDE THERAPEUTIC CONJUGATES AND USES THEREOF” (priority 2008, published 2011).

pIC50: −log10 of the molar value. Entries after “also recorded” stand apart in the source; their conditions may differ. Square brackets hold non-standard residues; d marks the D form. Ends that are not written are not given here. Peptide text beside a SMILES is read from it. pGlu = O=C1CC[C@@H](C(=O)O)N1

For one series, the target named is NTSR1 (Homo sapiens, UniProt P30989). The series is described as follows: biochemical.
Sequence of NTSR1 (P30989 whole entry): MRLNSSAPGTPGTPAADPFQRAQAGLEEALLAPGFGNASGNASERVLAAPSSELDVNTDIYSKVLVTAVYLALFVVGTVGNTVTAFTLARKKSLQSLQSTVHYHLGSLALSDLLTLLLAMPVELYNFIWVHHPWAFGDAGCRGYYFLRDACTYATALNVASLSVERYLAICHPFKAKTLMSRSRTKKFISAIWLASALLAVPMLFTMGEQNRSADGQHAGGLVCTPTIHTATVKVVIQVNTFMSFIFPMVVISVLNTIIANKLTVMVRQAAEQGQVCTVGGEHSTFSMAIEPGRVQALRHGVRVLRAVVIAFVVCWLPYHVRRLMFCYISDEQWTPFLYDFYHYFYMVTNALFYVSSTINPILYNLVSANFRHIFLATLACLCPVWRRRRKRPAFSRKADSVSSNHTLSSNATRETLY
The subject of series [1] is mice. The series is described as follows: Body temperature (hypothermia induction) in mice. It counts as in vivo. Conditions: for Δ Max temp: mouse, in vivo.
Procedure: We also tested whether higher doses of the conjugate would results in greater induction of hypothermia.
At this time, the infusion was increased to 40 mg/kg/hr.
The test system of another series is rats. The series is described as follows: Body temperature (sustained hypothermia) in rats. In kind it is in vivo. As for the experimental part:
A similar experiment was performed in rats.
A similar experiment was conducted in rats.
A further experiment, conducted over a 12-hour period, was also performed in rats.

For the next series, the system named is mice brains. The series is described as follows: In situ brain perfusion of iodinated NT and NT-An2. In kind it is in vivo. The source says: Following iodination, mice brains were perfused in the carotid artery with either [^125I]-NT or the [^125I]-NT-An2 derivative in Krebs buffer for the indicated times. After the indicated times, brains were further perfused for 30 sec to washout the excess of both compound. Both [^125I]-NT or [^125I]-NT-An2 derivative in brain were quantified using a […]. Results are expressed in terms of brain volume of distribution (ml/100 g) as a function of time.
Brain capillary depletion was performed using Dextran following standard procedures. Both [^125I]-NT or [^125I]-NT-An2 derivative present in brain, capillaries, and parenchyma were quantified and volume of distribution (ml/100 g/2 min) is reported.
To confirm that the NT-An2 conjugate crosses the BBB, both NT and the conjugate were iodinated using standard procedures, and in situ brain perfusion was performed using methods standard in the art. The initial transport was measured as a function of time (FIG. 42). […] Higher levels of NT-An2 were found in the brain parenchyma when compared to NT.

For series [2], the system named is mice. The experiment in a line: Hot plate test (analgesia) in mice. The settings on record: 15 minutes following injection, NT-An2 20 mg/kg, buprenorphine 1 mg/kg.
Another series concerns ob/ob mice. The series is described as follows: Treatment of obese (ob/ob) mice with Exen-An2: body weight, food intake, glycemia. In kind it is in vivo, mouse. The settings on record: higher doses (exendin-4 30 μg/kg, Exen-An2 48 μg/kg), vs control. As for the experimental part:
The body weight of each mouse was measured daily. Food intake was estimated based on the mean values for each group, and glycemia was measured one hour following treatment.

Another series deals with DIO mice. The series is described as follows: Glycemia in DIO mice after bolus injection. In kind it is in vivo, mouse. The settings on record: vs control. As for the experimental part:
We also tested the ability of the exendin-4-Angiopep-2 dimer conjugate to reduce glycemia in DIO mice. Mice were injected with a bolus containing a control, exendin-4, or the exendin-4-Angiopep-2 dimer conjugate.

The subject of another series is mouse brain. The settings on record: in vivo.
The next series relates to blood-brain barrier. Conditions: mouse, in vivo.

Procedure for mouse brain: To measure brain uptake of the exendin-4/Angiopep-2 conjugates, we used an in situ perfusion assay. […] Briefly, the right common carotid artery of mice anesthetized with ketamine/xylazine (140/8 mg/kg i.p.) was exposed and ligated at the level of the bifurcation of the common carotid, rostral to the occipital artery. The common carotid was then catheterized rostrally with polyethylene tubing filled with heparin (25 U/ml) and mounted on a 26-gauge needle. […] Prior to the perfusion, the contralateral blood flow contribution was eliminated by severing the heart ventricles. […] Mice were then decapitated to terminate perfusion and the right hemisphere was isolated on ice before being subjected to capillary depletion. Aliquots of homogenates, supernatants, pellets, and perfusates were taken to measure their contents and to evaluate the apparent volume of distribution.

Turning to `CC[C@H](C)[C@H](NC(=O)[C@@H](Cc1ccc(O)cc1)NC(=O)[C@@H]1CCCN1C(=O)[C@H](CCCNC(=N)N)NC(=O)[C@H](CCCNC(=N)N)NC(=O)[C@H](CCCCN)NC(C)=O)C(=O)N[C@@H](CC(C)C)C(=O)O` [AcLysNT(8-13)D-tyr11, Ac-KRRPD-YIL-OH] (Ac-KRRP[dY]IL-OH), the pIC50 against NTSR1 is 5.27.

In turn, `CC[C@H](C)[C@H](NC(=O)[C@H](Cc1ccc(O)cc1)NC(=O)[C@@H]1CCCN1C(=O)[C@H](CCCNC(=N)N)NC(=O)[C@H](CCCNC(=N)N)NC(=O)[C@H](CCCCN)NC(=O)[C@@H]1CCC(=O)N1)C(=O)N[C@@H](CC(C)C)C(=O)O` [pGlu-Lys-NT(8-13)] ([pGlu]KRRPYIL-OH; C-terminus assumed) gave a pIC50 against NTSR1 of 8.89.

As for “NT-An2: Neurotensin Angiopep-2-Cys amide conjugate via EMCS/MHA linker; different production batches”, the “reduction in body temperature” value in the series with mice [1] (mice, 5, 15, or 20 mg/kg, monitored for 120 minutes) is listed as “Small differences between these higher doses”. Further, the body temperature entry in the series on mice [1] (mice, i.v. bolus 20 mg/kg then 20 mg/kg/hr for 2.5 hours, then 40 mg/kg/hr, 360 minute time course) is listed as “reduction in body temperature”; in the series with mice [1] (mice, intravenous, NT 1 mg/kg or equivalent dose of conjugate (2.5 mg/kg)), “rapid decrease in the body temperature”; in the series with mice [1] (mice, intravenous, NT-An2 5 mg/kg), “stronger decrease in body temperature”; with rats (40 mg/kg i.v. bolus followed by infusion, 12-hour period, 40 mg/kg) it was “sustained reduction in body temperature; also recorded: prolonged reduction of body temperature”; in the series on rats (i.v. 20 mg/kg then 20 mg/kg/hr infusion, 360-minute time course), “sustained reduction in body temperature”. Moreover, the “effect on body temperature” value in the series with mice [1] (mice, i.v. bolus, monitored 120 minutes, conjugates compared with control) is listed as “greatest reduction in body temperature; also recorded: larger effect”. The “Δ Max temp” value in the series on mice [1] (listed as ANG-NT (prep #1)) is −4 to −5 °C; with mice [1] (listed as ANG-NT (prep #2)), −4 to −5 °C; with mice [1] (listed as ANG-NT (prep #3)), −3 to −4 °C; in the series on mice [1] (listed as ANG-NT (prep #4)), −2 to −4 °C. Further, the maximal temperature drop result in the series with rats (i.v. bolus 20 mg/kg then 20 mg/kg/hr for […], after 90 minutes) was “about 3.5 °C”. The “trapping in the brain capillaries” value in the series on mice brains (2 min in situ perfusion, capillary depletion) was “not trapped in the brain capillaries”. Also, in the series with mice brains (2 min in situ perfusion, capillary depletion, compared to NT), the “levels in the brain parenchyma” value is listed as “Higher levels”. For the same compound, in the series on mice brains (in situ brain perfusion, as a function of time, iodinated compounds), the initial brain uptake entry is “higher than for the unconjugated NT”. The “latency of foot licking behavior (hot plate)” value in the series with mice [2] is “increased the latency of foot licking behavior in a statistically significant manner”.

Turning to exendin-4, the body weight gain result in the series with ob/ob mice (after 10 days of daily treatment) is on record as “lower than the control; also recorded: reduce weight gain”. Further, the food intake entry in the series on ob/ob mice is “reduced; also recorded: reduce food intake”. The glycemia entry in the series with DIO mice is “reduced glycemia”. In addition, the brain distribution with mouse brain stood at 0.2 ml/100 g/2 min.

With “leptin(116-130) (SCHLPWASGLETLDS-NH2; UniProt P41159 116-130, looked up, fragment) [leptin116-130]”, the “transport across the BBB” value in the series on blood-brain barrier is “reduced as compared to in lean mice”.
